Measurements as given in patent publication US12492337B2, “Fluorescent probe, preparation method therefor and use thereof” (FLUORESCENCE DIAGNOSIS (SHANGHAI) BIOTECH COMPANY, priority 2017, dated 2025).

Key:
[1] = system: HaloTag protein tags in different subcellular organelles of Hela cells; assay: Labeling HaloTag protein tags in different subcellular organelles of Hela cells (Example 90); type: cell-based; conditions: 0.2 μM probe, 2 hours, no washing; cytoskeleton, mitochondria, nucleus, Golgi, whole cells, lysosomes
Protocol: In order to verify that probe 57, probe 59, probe 60, probe 61, probe 62, and probe 63 can be used to label target proteins located in different organelles. Hela cells were used as examples to detect the effect of probes on labeling HaloTag protein tags in different subcellular organelles. Hela cells were implanted 5000 cells per well in 96-well glass-bottom cell culture plates. After 14 hours, lipo2000 kit was used to transfect the plasmids localized by HaloTag protein tags in different organelles. The original culture medium was removed 24 hours after transfection, and the cells were washed twice with a phenol red-free DMEM medium, and incubated for 2 hours in a phenol red-free medium containing 0.2 μM probes, and the effect of cell labelling was detected by imaging using a Leica TCS-8 confocal microscope.

[2] = Viscosity responsiveness: fluorescence intensity in glycerol versus methanol; type: physicochemical; conditions: fluorescence intensity in glycerol to that in methanol
Outline: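 At 25 °C, with the same dye concentration and excitation wavelength, maximum emission intensity in glycerol was compared with intensity in methanol, giving a ratio. Dye concentrations ranged from 1×10^−7 M to 1×10^−5 M.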

Hela-WT cells = assay: Confocal imaging of Hela-WT cells without protein tag (Example 89); type: cell-based; conditions: 5 μM probe, 2 hours, 37° C., confocal microscope
Protocol: (§1) Hela cells are used as an example to test the labeling effect of compounds in mammalian cells. Hela cells and Hela-WT cells (Hela primitive cell, without a protein tag expressed) stably expressing HaloTag protein tags were planted in 14 mm 96-well glass bottom cell culture plates and stabilized for 10 hours. Probe 57, probe 59, probe 60, probe 61, probe 69, probe 75, probe 76, probe 82 were added to the culture medium and diluted to 5 μM, respectively. The cells were incubated in a 37° C. carbon dioxide incubator for 2 hours, and the fluorescence changes of the labeled cells were detected by imaging with a Leica TPS-8 confocal microscope.

[3] = Quantum yield of free probe not reacted with protein tag; type: physicochemical
Protocol: (§2) A probe was mixed with a corresponding HaloTag protein tag to obtain a mixed sample. The final concentration of the probe in the mixed sample was 5 μM and the final concentration of the protein tag was 10 μM. The mixed sample was incubated at 37° C. for 1 hour, and the sample was detected using a fluorescence spectrophotometer.

[4] = system: Hela cells stably expressing HaloTag protein tags; assay: Confocal imaging of labeled Hela cells stably expressing HaloTag protein tags (Example 89); type: cell-based; conditions: Homo sapiens, 5 μM probe, 2 hours, 37° C., confocal microscope, read-out: fluorescence signal enhancement in Hela cells expressing the protein tag
Protocol: as §1

HaloTag protein tag = assay: Probe mixed with HaloTag protein tag, fluorescence spectrophotometer (Example 86); type: biochemical; conditions: 5 μM probe, 10 μM protein tag, 37° C., 1 hour; for Fluorescence enhancement: fluorescence activation multiple after binding protein tag; for Emission/nm: fluorescence emission wavelength
Protocol: as §2

[5] = system: fusion protein CX43-HaloTag; assay: Tracing assembly of CX43-HaloTag intercellular channels in Hela cells (Example 94); type: cell-based
From the text: To verify that the probe can be used to monitor the assembly and degradation of biomacromolecules in mammalian cells in real time, Hela cells were used as an example to detect the process of tracing, by a probe, the assembly of intercellular protein CX43 to form intercellular channels in mammalian cells. The C-terminus of CX43 gene was fused with HaloTag gene, and a Hela cell line stably expressing the fusion protein CX43-HaloTag was constructed and obtained by lentiviral infection technology. Hela-CX43-HaloTag cell lines were implanted in a 20 mm glass-bottom cell culture dish 10 hours before the probe labeling. When labeling, the probe 61 μM was first diluted to 2 μM with phenol red-free DMEM medium and replaced the original cell culture medium. The cells were incubated in a 37° C. carbon dioxide incubator for 1 hour. Thereafter, the cells were washed twice with fresh phenol red-free DMEM medium, and the unbound probe 61 was removed at intervals of 2 min. Then, a DMEM phenol-free medium containing 1 μM probe 57 was added to label the cells, and a Leica SP8 confocal microscope was used to monitor the fluorescence intensity and position changes of labeled cells at the corresponding fluorescence channels of probe 61 and probe 57 for a long time, which are shown in FIGS. 17A and 17B, respectively. […]

[6] = system: HaloTag-IAA17-H2B protein; assay: Fluorescence change on IAA-induced degradation of HaloTag-IAA17-H2B in Hela cells (Example 93); type: cell-based; conditions: 1 μM probe, 1 hour labeling, then IAA-induced protein degradation
Protocol: In order to verify the correlation between the fluorescent activation of the probe and the presence of protein, the HaloTag protein in mammalian cells was taken as an example, and the AID degradation system in Hela cells was used as an example to detect the fluorescence changes of HaloTag protein binding probes after protein degradation. First, Hela cells were implanted 20,000/cm^2 in a 20 mm glass-bottomed cell culture dish. After 14 hours, pcdna3.1-TIR1 and pcdna3.1-HaloTag-IAA17-H2B plasmids were transfected with lipofectmain2000 transfection reagent from invirtogen. 24 hours after cell transfection, the original cell culture medium was replaced with a phenol red-free DMEM medium containing 1 μM probe 61 to label the cells, and the cell samples were incubated in a 37° C. carbon dioxide incubator for 1 hour. After the labeling was completed, the fluorescence signal of cell labels was detected by imaging using a Leica SP8 laser confocal microscope. Then, indole acetic acid (IAA) was added to induce the degradation of HaloTag-IAA17-H2B protein, and the changes in cell fluorescence during protein degradation were detected. […] When proteins are present, fluorescence is activated, and when proteins are degraded, fluorescence disappears, which can be used to track and monitor the degradation process of target proteins.

[7] = system: HaloTag protein tag expressed in the liver; assay: Labeling of HaloTag protein tag expressed in mouse liver, in vivo imaging system (Example 92); design: species or system mice; conditions: 0.4 μM probe in 200 ul PBS via tail vein, 6 hours later
Protocol: First, a plasmid pcdna3.1-HaloTag (sample group) expressing the HaloTag protein tag and a control plasmid pcdna3.1-CAT (control group) not expressing the HaloTag protein tag were introduced into mice. This method is to dissolve the plasmid in a large volume of solution and inject it into mice quickly through tail vein injection. The mouse liver absorbs DNA and then expresses the target protein. 20 hours after the plasmid injection, 0.4 μM probe 77 dissolved in 200 ul of PBS was injected into the mice via tail vein injection to label the HaloTag protein tag; 6 hours later, the mice were dissected out, and the fluorescence differences in the liver parts of different mouse samples were detected by KODAK multi-spectral in vivo imaging system.
The fluorescence of the liver of the control plasmid pcdna3.1-CAT injected with the probe 77 was very low, which was close to the background fluorescence level of the blank liver without the probe injected, and the liver of the HaloTag plasmid pcdna3.1-HaloTag injected with the probe 77 had strong fluorescence, and the signal intensity was more than 20 times that of the control group.

SNAP protein = assay: Labeling speed and fluorescence intensity, purified SNAP protein, microplate reader (Example 95); type: biochemical
Protocol: To verify that the probe-labeled HaloTag protein tag has a faster labeling speed and higher fluorescence intensity than the probe-labeled SNAP protein tag, a probe 48-labeled HaloTag protein tag and a reference probe 85-labeled SNAP protein tag were taken as examples (probe 48 and reference probe 85 have the same fluorescent dye portion). When labeling, the purified HaloTag protein and SNAP protein were first diluted to 7.5 μM with PBS.
Probe 48 and reference probe 85 were diluted to 15 μM with PBS, and 20 μL of probe 48 was added to 80 μL of HaloTag protein and mixed, 20 μL of reference probe 85 was added to 80 μL of SNAP protein and mixed, and a microplate reader was used to monitor the changes in fluorescence intensity of the two solutions excited at 620 nm and emitted at 650 nm, which lasted for two hours.

| Compound | effect of cell labelling of subcellular organelles [1] | ratio [2] | fluorescent signal in Hela-WT cells (Hela-WT cells) | The quantum yield of the free probe [3] | fold induction at 5 µM [4] | The quantum yield after binding to Halo-tag (HaloTag protein tag) | Fluorescence enhancement (HaloTag protein tag) | Emission/nm (HaloTag protein tag) [nm] | fluorescent signal in the probe 57 channel when just added ([5]; 1 μM probe added after labeling with probe 61 and washing) | fluorescence signal after indoleacetic acid added for 90 min [6] | fluorescent signal in the probe 61 fluorescence channel ([5]; 2 μM probe, 1 hour, Hela-CX43-HaloTag cells) | liver fluorescence signal intensity relative to the control group ([7]; mice with pcdna3.1-HaloTag) | fluorescence of the liver of control plasmid pcdna3.1-CAT mice ([7]; mice without HaloTag expression) | labeling time of the SNAP protein tag labeled by the probe (SNAP protein; 20 μL 15 μM probe + 80 μL 7.5 μM protein in PBS, excited at 620 nm, emitted at 650 nm) | fluorescence intensity lower than the former (probe 48-labeled HaloTag) by (SNAP protein; same conditions as probe 48 with HaloTag protein) [time] |
| --- | --- | --- | --- | --- | --- | --- | --- | --- | --- | --- | --- | --- | --- | --- | --- |
| CN(C)c1ccc(/C=C(\C#N)C(=O)NCCOCCOCCCCCCCl)cc1 [Probe 57] | clearly display a variety of subcellular organelle structures without washing | 762 | no corresponding fluorescent signal could be detected | <0.001 | ~200 | 0.56 | 1026 | 480 | fluorescent signal could not be detected | – | – | – | – | – | – |
| N#C/C(=C\c1cc2c3c(c1)CCCN3CCC2)C(=O)NCCOCCOCCCCCCCl [Probe 59] | clearly display a variety of subcellular organelle structures without washing | 370 | no corresponding fluorescent signal could be detected | <0.001 | ~200 | 0.45 | 498 | 500 | – | – | – | – | – | – | – |
| CN1CCSc2cc(/C=C(\C#N)C(=O)NCCOCCOCCCCCCCl)ccc21 [Probe 60] | clearly display a variety of subcellular organelle structures without washing | 1199 | no corresponding fluorescent signal could be detected | 0.0011 | ~200 | 0.65 | 751 | 520 | – | – | – | – | – | – | – |
| CN(C)c1cc2sc(/C=C(\C#N)C(=O)NCCOCCOCCCCCCCl)cc2s1 [Probe 61] | clearly display a variety of subcellular organelle structures without washing | 817 | no corresponding fluorescent signal could be detected | 0.0012 | ~200 | 0.59 | 668 | 552 | – | almost invisible | long column-shaped specific fluorescent signal between the two cells | – | – | – | – |
| CN(C)c1ccc2cc(/C=C(\C#N)C(=O)NCCOCCOCCCCCCCl)sc2c1 [Probe 63] | clearly display a variety of subcellular organelle structures without washing | 531 | – | 0.0015 | – | 0.70 | 486 | 570 | – | – | – | – | – | – | – |
| CN(C)c1cc2c(s1)-c1sc(/C=C(\C#N)C(=O)OCCOCCOCCCCCCCl)cc1C2(C)C [Probe 77] | – | 479 | – | 0.0014 | – | 0.53 | 721 | 652 | – | – | – | more than 20 times | very low | – | – |
| CN(CCOC(=O)NCc1ccc(COc2nc(N)nc3[nH]cnc23)cc1)c1cc2c(s1)-c1sc(/C=C(\C#N)C(=O)OC(C)(C)C)cc1C2(C)C [Reference Probe85, reference compound] | – | 510 | – | <0.001 | – | 0.32 | 321 | 645 | – | – | – | – | – | about 7 min | ≥ 1 |
